The assay can be described thus: Inhibition of hPIV1 sialidase. The arrangement: species or system Human respirovirus 1.
What is called IC50 is the concentration that inhibits the measured activity by half. Read a high IC50 as weaker potency in that assay. `CC(=O)N[C@H]1[C@H]([C@H](O)[C@H](O)CO)OC(C(=O)O)=C[C@@H]1OCC(N)=S` yielded an IC50 of 9 µM.
Consider `CC(=O)N[C@H]1[C@H]([C@H](O)[C@H](O)CO)OC(C(=O)O)=C[C@@H]1OCCC(N)=S`, for which 68 µM corresponded to half-maximal inhibition (IC50). This IC50 lies about 7.6-fold higher than the previous one.
For `CC(=O)N[C@H]1[C@H]([C@H](O)[C@H](O)CO)OC(C(=O)O)=C[C@@H]1OCCCC(N)=S` the value was 102 µM; for `CC(=O)N[C@H]1[C@H]([C@H](O)[C@H](O)CO)OC(C(=O)O)=C[C@@H]1O` [NEU5AC2EN], 300 µM.

(Values after ChEMBL document CHEMBL1158164, “2-Deoxy-2,3-didehydro-N-acetylneuraminic acid analogs structurally modified by thiocarbamoylalkyl groups at the C-4 position: Synthesis and biological evaluation as inhibitors of human parainfluenza virus type 1” (Bioorg Med Chem, 2008).)
